Data published in patent US20150218212A1, “FLUORINATED EPOXYKETONE-BASED TETRAPEPTIDE COMPOUNDS AND USES THEREOF AS PROTEASOME INHIBITORS” (FLUORINOV PHARMA INC., priority 2012, published 2015).

Experiments:
MM.1S tumor cells = test: Inhibition of tumor growth in myeloma MM.1S mouse xenograft model; format: in vivo; settings: MM.1S xenograft mice
Procedure: The mice were irradiated (200 rads) using a Co60 irradiator source. After 24 hrs, each mouse was inoculated subcutaneously with 5×10^6 MM.1S tumor cells in 0.1 mL PBS for tumor development. Treatments were started when the tumor volume reached 100 mm^3. Each treatment group consisted of 10 mice. The test articles of compounds of Formula I were administrated to the tumor-bearing mice according to a specific predetermined regimen.

K-562 = test: NCI screening panel, K-562 (Leukemia); format: cell-based, human
Procedure: (§1) Representative compounds of Formula I were screened using the National Cancer Institute (NCI) screening panel, which consists of a panel of human tumor cell lines, representing leukemia, melanoma, and cancers of the lung, colon, ovary, breast, prostate and renal system.
(§2) After 24 h, two plates of each cell line are fixed in situ with TCA, to represent a measurement of the cell population for each cell line at the time of drug addition (Tz). Experimental drugs are solubilised in dimethyl sulfoxide at 400-fold the desired final maximum test concentration and stored frozen prior to use. At the time of drug addition, an aliquot of frozen concentrate is thawed and diluted to twice the desired final maximum test concentration with complete medium containing 50 μg/mL gentamicin. Additional four, 10-fold or ½ log serial dilutions are made to provide a total of five drug concentrations plus control. Aliquots of 100 μl of these different drug dilutions are added to the appropriate microtiter wells already containing 100 μl of medium, resulting in the required final drug concentrations.
(§3) Following drug addition, the plates are incubated for an additional 48 h at 37° C., 5% CO2, 95% air, and 100% relative humidity. For adherent cells, the assay is terminated by the addition of cold TCA (trichloroacetic acid). Cells are fixed in situ by the gentle addition of 50 μl of cold 50% (w/v) TCA (final concentration, 10% TCA) and incubated for 60 minutes at 4° C. The supernatant is discarded, and the plates are washed five times with tap water and air dried. Sulforhodamine B (SRB) solution (100 μl) at 0.4% (w/v) in 1% acetic acid is added to each well, and plates are incubated for 10 minutes at room temperature. After staining, unbound dye is removed by washing five times with 1% acetic acid and the plates are air dried. Bound stain is subsequently solubilised with 10 mM trizma base, and the absorbance is read on an automated plate reader at a wavelength of 515 nm. For suspension cells, the methodology is the same except that the assay is terminated by fixing settled cells at the bottom of the wells by gently adding 50 μl of 80% TCA (final concentration, 16% TCA). Using the seven absorbance measurements [time zero, (Tz), control growth, (C), and test growth in the presence of drug at the five concentration levels (Ti)], the percentage growth is calculated at each of the drug concentrations levels. Percentage growth inhibition is calculated as: [(Ti−Tz)/(C−Tz)]×100 for concentrations for which Ti>/=Tz and [(Ti−Tz)/Tz]×100 for concentrations for which Ti<Tz.
(§4) Three dose response parameters are calculated for each experimental agent. Growth inhibition of 50% (GI50) is calculated from [(Ti−Tz)/(C−Tz)]×100=50, which is the drug concentration resulting in a 50% reduction in the net protein increase (as measured by SRB staining) in control cells during the drug incubation. The drug concentration resulting in total growth inhibition (TGI) is calculated from Ti=Tz. The LC50 (concentration of drug resulting in a 50% reduction in the measured protein at the end of the drug treatment as compared to that at the beginning) indicating a net loss of cells following treatment is calculated from [(Ti−Tz)/Tz]×100=−50. Values are calculated for each of these three parameters if the level of activity is reached. However, if the effect is not reached or is exceeded, the value for that parameter is expressed as greater or less than the maximum or minimum concentration tested.

MOLT-4 = test: NCI screening panel, MOLT-4 (Leukemia); format: cell-based, human
Procedure: as §1, §2, §3, §4

HOP-92 = test: NCI screening panel, HOP-92 (Non-Small Cell Lung Cancer); format: cell-based, human
Procedure: as §1, §2, §3, §4

NCI-H522 = test: NCI screening panel, NCI-H522 (Non-Small Cell Lung Cancer); format: cell-based, human
Procedure: as §1, §2, §3, §4

KM12 = test: NCI screening panel, KM12 (Colon Cancer); format: cell-based, human
Procedure: as §1, §2, §3, §4

SW-620 = test: NCI screening panel, SW-620 (Colon Cancer); format: cell-based, human
Procedure: as §1, §2, §3, §4

SNB-19 = test: NCI screening panel, SNB-19 (CNS Cancer); format: cell-based, human
Procedure: as §1, §2, §3, §4

SK-MEL-28 = test: NCI screening panel, SK-MEL-28 (Melanoma); format: cell-based, human
Procedure: as §1, §2, §3, §4

UACC-257 = test: NCI screening panel, UACC-257 (Melanoma); format: cell-based, human
Procedure: as §1, §2, §3, §4

CCRF-CEM = test: NCI screening panel, CCRF-CEM (Leukemia); format: cell-based, human
Procedure: as §1, §2, §3, §4

| SMILES | Log10GI50 (K-562) | Log10TGI50 (K-562) | Log10GI50 (MOLT-4) | Log10LC50 (MOLT-4) | Log10TGI50 (MOLT-4) | Log10GI50 (HOP-92) | Log10LC50 (HOP-92) | Log10TGI50 (HOP-92) | Log10GI50 (NCI-H522) | Log10LC50 (NCI-H522) | Log10TGI50 (NCI-H522) | Log10GI50 (KM12) | Log10LC50 (KM12) | Log10TGI50 (KM12) | Log10GI50 (SW-620) | Log10LC50 (SW-620) | Log10TGI50 (SW-620) | Log10GI50 (SNB-19) | Log10LC50 (SNB-19) | Log10TGI50 (SNB-19) | also measured |
| --- | --- | --- | --- | --- | --- | --- | --- | --- | --- | --- | --- | --- | --- | --- | --- | --- | --- | --- | --- | --- | --- |
| CC(C)C[C@H](NC(=O)[C@H](COC(F)F)NC(=O)CN1CCOCC1)C(=O)N[C@@H](COC(F)F)C(=O)N[C@@H](CC(C)C)C(=O)[C@@]1(C)CO1 [Example 1, (2S)—N-[(1S)-1-(difluoromethoxymethyl)-2-[[(1S)-3-methyl-1-[(2R)-2-methyloxirane-2-carbonyl]butyl]amino]-2-oxo-ethyl]-2-[[(2S)-3-(difluoromethoxy)-2-[(2-morpholinoacetyl)amino]propanoyl]amino]-4-methyl-pentanamide] | −7.38 | >−4.00 | −7.57 | >−4.00 | −6.98 | −7.74 | −6.50 | −7.30 | −7.96 | −4.04 | −7.05 | −7.76 | −7.10 | −7.43 | −7.54 | >−4.00 | −5.43 | −7.22 | >−4.00 | >−4.00 | gross adverse effects including reductions in body weight or alterations in behaviour (MM.1S tumor cells; 4 mg/kg i.v, days 1, 3, 5/wk×28 days): no gross adverse effects; gross adverse effects including reductions in body weight or alterations in behaviour (MM.1S tumor cells; 8 mg/kg i.v, days 1, 2/wk×4 wks): no gross adverse effects; Log10LC50 (K-562): >−4.00; Log10GI50 (SK-MEL-28): −7.56; Log10LC50 (SK-MEL-28): >−4.00; Log10TGI50 (SK-MEL-28): −6.97; Log10GI50 (UACC-257): −7.01; Log10LC50 (UACC-257): >−4.00; Log10TGI50 (UACC-257): −5.62 |
| CC(C)C[C@H](NC(=O)[C@H](COC(F)F)NC(=O)[C@H](COC(F)F)NC(=O)[C@H](CCc1ccccc1)NC(=O)CN1CCOCC1)C(=O)[C@@]1(C)CO1 [Example 7, (2S)-N-[(1S)-1-(difluoromethoxymethyl)-2-[[(1S)-1-(difluoromethoxymethyl)-2-[[(1S)-3-methyl-1-[(2R)-2-methyloxirane-2-carbo-nyl]butyl]amino]-2-oxo-ethyl]amino]-2-oxo-ethyl]-2-[(2-morpholinoacetyl)amino]-4-phenyl-butanamide] | −7.37 | >−4.00 | −7.71 | >−4.00 | −6.85 | −7.71 | −6.54 | −7.28 | −7.88 | −4.62 | −7.20 | −7.78 | −7.11 | −7.45 | −7.61 | >−4.00 | −5.63 | −7.14 | >−4.00 | >−4.00 | Log10GI50 (CCRF-CEM): <−8.00; Log10LC50 (CCRF-CEM): >−4.00; Log10TGI50 (CCRF-CEM): >−4.00; Log10LC50 (K-562): >−4.00; Log10GI50 (SK-MEL-28): −7.44; Log10TGI50 (SK-MEL-28): >−4.00; Log10GI50 (UACC-257): −6.80; Log10LC50 (UACC-257): >−4.00; Log10TGI50 (UACC-257): −6.03 |
| CC(C)C[C@H](NC(=O)[C@H](Cc1ccccc1)NC(=O)[C@H](COC(F)F)NC(=O)[C@H](COC(F)F)NC(=O)CN1CCOCC1)C(=O)[C@@]1(C)CO1 [Example 11, (2S)-2-[[(2S)-3-(difluoromethoxy)-2-[[(2S)-3-(difluoromethoxy)-2-[(2-morpholinoacetyl)-amino]propanoyl]amino]propanoyl]amino]-N-[(1S)-3-methyl-1-[(2R)-2-methyloxirane-2-carbonyl]butyl]-3-phenyl-propanamide] | −7.36 | >−4.00 | <−8.00 | >−4.00 | −6.83 | −7.62 | −6.26 | −7.15 | −7.72 | >−4.00 | −7.15 | −7.73 | −7.07 | −7.40 | −7.63 | >−4.00 | −5.97 | −7.20 | >−4.00 | >−4.00 | Log10GI50 (CCRF-CEM): <−8.00; Log10LC50 (CCRF-CEM): >−4.00; Log10TGI50 (CCRF-CEM): −4.57; Log10LC50 (K-562): >−4.00; Log10GI50 (SK-MEL-28): −7.20; Log10LC50 (SK-MEL-28): >−4.00; Log10TGI50 (SK-MEL-28): −5.55; Log10GI50 (UACC-257): −6.79; Log10LC50 (UACC-257): >−4.00; Log10TGI50 (UACC-257): −6.14 |
| CC(C)C[C@H](NC(=O)[C@H](COC(F)F)NC(=O)[C@H](COC(F)F)NC(=O)[C@H](COC(F)F)NC(=O)CN1CCOCC1)C(=O)[C@@]1(C)CO1 [Example 17, (2S)-3-(difluoromethoxy)-N-[(1S)-1-(difluoromethoxymethyl)-2-[[(1S)-1-(difluoro-methoxymethyl)-2-[[(1S)-3-methyl-1-[(2R)-2-methyloxirane-2-carbonyl]butyl]amino]-2-oxo-ethyl]amino]-2-oxo-ethyl]-2-[(2-mor-pholinoacetyl)amino]-propanamide] | −6.77 | >−4.00 | −7.42 | >−4.00 | −6.41 | −7.56 | −6.02 | −7.01 | −7.40 | −5.25 | −6.64 | −7.34 | −6.24 | −6.73 | −7.08 | >−4.00 | −4.95 | −7.16 | >−4.00 | −4.67 | Log10GI50 (CCRF-CEM): −7.39; Log10LC50 (CCRF-CEM): >−4.00; Log10TGI50 (CCRF-CEM): >−4.00; Log10GI50 (SK-MEL-28): −6.97; Log10LC50 (SK-MEL-28): >−4.00; Log10TGI50 (SK-MEL-28): −5.69; Log10GI50 (UACC-257): −6.45; Log10LC50 (UACC-257): >−4.00; Log10TGI50 (UACC-257): −5.56 |
